Experimental data as given in ChEMBL document CHEMBL1201862, “PubChem BioAssay data set” (2004).
Calls of active or inactive are those of the source.

How the values were obtained:
Major prion protein = Major prion protein (Homo sapiens, UniProt P04156); type: functional, cell-based
HEK293 [1] = test: cells; type: functional, cell-based; conditions: Homo sapiens
HEK293 [2] = test: cells; type: functional, cell-based; conditions: Homo sapiens; remark: listed apart in the source
HEK293 [3] = test: inhibition of NOD1-driven NF-kB reporter – cell-based, luminescence, uHTS, primary screen (AID 1578); type: functional; conditions: Homo sapiens
[4] = target: Nucleotide-binding oligomerization domain-containing protein 2 (Homo sapiens, UniProt Q9HC29); test: inhibition of NOD2-driven NF-kB reporter – cell-based, luminescence, uHTS, HEK293 (AID 1566); type: functional
HEK293 [5] = test: NOD2 signaling inhibitors in MDP-stimulated cells, cell-based, uHTS, luminescence (AID 2001); type: functional; conditions: Homo sapiens
Tumor necrosis factor = Tumor necrosis factor (Homo sapiens, UniProt P01375); test: analog potency on TNFa NF-kB signaling – cell-based, revised, SAR follow-up (AID 2337); type: functional
HEK293 [6] = test: cells; conditions: Homo sapiens
[7] = target: T1, Nucleotide-binding oligomerization domain-containing protein 1 (Homo sapiens, UniProt Q9Y239); test: blockers of NOD1 pathway activity – revised, SAR follow-up (AID 2333); type: functional
T1 sequence (Q9Y239 whole entry): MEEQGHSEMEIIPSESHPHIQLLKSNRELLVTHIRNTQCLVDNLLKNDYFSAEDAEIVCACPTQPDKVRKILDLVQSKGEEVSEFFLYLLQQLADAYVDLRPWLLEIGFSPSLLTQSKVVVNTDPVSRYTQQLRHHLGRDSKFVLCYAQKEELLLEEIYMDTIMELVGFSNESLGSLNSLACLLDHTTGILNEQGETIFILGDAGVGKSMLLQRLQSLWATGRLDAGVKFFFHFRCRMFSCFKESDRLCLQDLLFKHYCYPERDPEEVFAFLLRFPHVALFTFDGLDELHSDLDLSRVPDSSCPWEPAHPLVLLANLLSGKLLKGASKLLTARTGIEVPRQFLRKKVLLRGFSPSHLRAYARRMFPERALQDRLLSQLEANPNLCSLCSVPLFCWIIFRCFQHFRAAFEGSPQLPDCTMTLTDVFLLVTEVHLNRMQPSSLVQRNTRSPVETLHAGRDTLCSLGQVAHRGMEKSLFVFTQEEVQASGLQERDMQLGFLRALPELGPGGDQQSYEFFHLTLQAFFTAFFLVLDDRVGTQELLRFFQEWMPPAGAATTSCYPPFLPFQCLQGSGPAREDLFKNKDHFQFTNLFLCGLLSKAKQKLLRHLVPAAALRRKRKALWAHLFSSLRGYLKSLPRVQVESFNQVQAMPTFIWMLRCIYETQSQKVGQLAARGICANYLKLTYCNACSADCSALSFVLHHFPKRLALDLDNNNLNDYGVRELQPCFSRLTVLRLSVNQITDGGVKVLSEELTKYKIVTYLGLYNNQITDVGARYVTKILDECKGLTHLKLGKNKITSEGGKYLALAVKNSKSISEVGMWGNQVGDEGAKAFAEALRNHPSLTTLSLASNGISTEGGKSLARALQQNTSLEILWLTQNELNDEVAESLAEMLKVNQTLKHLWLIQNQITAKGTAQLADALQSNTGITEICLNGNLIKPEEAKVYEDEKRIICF

HEK293 [8] = test: cells; type: functional, cell-based; conditions: Homo sapiens; remark: listed apart in the source
Genome polyprotein = Genome polyprotein (dengue virus type 2, UniProt P29990); test: flavivirus cap methylation enzyme inhibition – biochemical, confirmation dose response, primary screen (AID 588689); type: functional
[9] = target: T2, High affinity choline transporter 1 (Homo sapiens, UniProt Q9GZV3); test: human choline transporter blockers, potency – cell-based, 5-point CRC, membrane potential dye, dose response (AID 504840); type: functional
T2 sequence (Q9GZV3 whole entry): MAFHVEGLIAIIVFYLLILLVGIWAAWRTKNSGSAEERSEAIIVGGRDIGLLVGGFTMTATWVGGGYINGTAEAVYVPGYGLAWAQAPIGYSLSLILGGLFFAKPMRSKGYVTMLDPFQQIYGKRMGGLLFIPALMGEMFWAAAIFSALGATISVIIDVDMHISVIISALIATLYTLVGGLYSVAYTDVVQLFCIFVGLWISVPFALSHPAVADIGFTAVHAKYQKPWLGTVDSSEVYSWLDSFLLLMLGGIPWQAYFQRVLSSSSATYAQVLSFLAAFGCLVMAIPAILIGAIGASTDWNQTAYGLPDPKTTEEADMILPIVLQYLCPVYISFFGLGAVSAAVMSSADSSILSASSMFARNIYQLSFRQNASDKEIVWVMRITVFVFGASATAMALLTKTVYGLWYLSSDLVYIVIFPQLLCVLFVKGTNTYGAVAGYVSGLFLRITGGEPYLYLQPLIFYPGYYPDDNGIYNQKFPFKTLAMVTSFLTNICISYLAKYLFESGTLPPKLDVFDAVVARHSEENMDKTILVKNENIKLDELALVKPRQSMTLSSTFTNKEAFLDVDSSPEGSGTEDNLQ

[10] = target: T3, Disintegrin and metalloproteinase domain-containing protein 17 (Homo sapiens, UniProt P78536); test: inhibition of ADAM17 substrate cleavage – biochemical, quenched FRET substrate, counter-screen for ADAM10 exosite inhibitor project, dose response (AID 743253)
[11] = potency of ADAM10 substrate cleavage blockers – biochemical, QFRET, dose response (AID 743254);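 further: ADAM10 enzyme with the DM2 quenched FRET peptide as substrate; EDANS fluorescence gain as the protease cuts the substrate; inhibitor potency against ADAM10 proteolytic activity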
Beta-galactosidase = Beta-galactosidase (Escherichia coli, UniProt Q8VNN2); test: Dose response counterscreen for EBI2 assay utilizing the enzyme, b-galactosidase.; type: functional
[12] = Counterscreen for activators of the function of SWI/SNF related, matrix associated, actin dependent regulator of chromatin, subfamily a, member 2 (SMARCA2, BRM): Luminescence-based cell-based high throughput dose response assay to identify non-selective compounds using the VP16 reporter assay.; type: functional
[13] = target: SWI/SNF-related matrix-associated actin-dependent regulator of chromatin subfamily A member 2 (Homo sapiens, UniProt P51531); test: Luminescence-based cell-based high throughput dose response assay to identify activators of the function of SWI/SNF related, matrix associated, actin dependent regulator of chromatin, subfamily a, member 2 (SMARCA2, BRM).; type: functional
[14] = Trypanosoma cruzi growth suppression in host cells – NIH3T3 host cells, beta-gal luminescence, confirmation (AID 2044); type: functional, cell-based;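 further: intracellular parasites grown in NIH/3T3 mouse fibroblasts as host cells; luminescent beta-galactosidase reporter signal from transgenic T. cruzi replicating inside host cells; inhibitors lower the luminescence signal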
[15] = NIH3T3 cell viability loss – ATP luminescence, mouse fibroblasts, counter-screen, dose response (AID 2010); type: functional, cell-based;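 further: cells exposed to compound for about 90 hours before reading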
[16] = inhibition of ADAM10 peptide cleavage – biochemical, FRET peptide substrate, recombinant human ADAM10, selectivity assay for ADAM17 exosite inhibitor project, dose response (AID 743259);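 further: ADAM10 enzyme cleaving a FRET peptide substrate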
[17] = target: T3, Disintegrin and metalloproteinase domain-containing protein 17; test: exosite inhibitors of ADAM17, dose response, biochemical (AID 743260)
Protein skinhead-1 = target: T4, Protein skinhead-1 (Caenorhabditis elegans, UniProt P34707); type: functional
T4 sequence (P34707 whole entry): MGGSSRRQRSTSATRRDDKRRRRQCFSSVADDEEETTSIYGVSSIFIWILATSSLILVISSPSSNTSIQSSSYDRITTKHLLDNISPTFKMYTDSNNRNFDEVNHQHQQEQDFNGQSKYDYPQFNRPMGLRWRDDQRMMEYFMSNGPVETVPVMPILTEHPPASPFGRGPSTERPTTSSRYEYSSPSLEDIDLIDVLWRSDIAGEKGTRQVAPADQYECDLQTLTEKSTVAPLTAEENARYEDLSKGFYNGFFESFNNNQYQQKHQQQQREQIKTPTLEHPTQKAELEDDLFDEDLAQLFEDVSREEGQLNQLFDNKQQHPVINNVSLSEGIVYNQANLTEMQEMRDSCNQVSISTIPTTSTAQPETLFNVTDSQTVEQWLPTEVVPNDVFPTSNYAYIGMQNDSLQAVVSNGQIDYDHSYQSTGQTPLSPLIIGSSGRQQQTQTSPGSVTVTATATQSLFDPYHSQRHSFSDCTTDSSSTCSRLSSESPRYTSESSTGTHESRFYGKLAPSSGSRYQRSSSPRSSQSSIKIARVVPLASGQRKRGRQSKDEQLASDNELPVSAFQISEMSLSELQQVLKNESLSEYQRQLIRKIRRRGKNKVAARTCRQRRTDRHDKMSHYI

In the case of `COc1cc(C(=O)Nc2scc(-c3ccc(Br)cc3)c2C(=O)O)cc(OC)c1OC`, the IC50 (Major prion protein) is reported as 5.71 µM (active), the IC50 (HEK293 [1]) is reported as > 20 µM (inactive) and the IC50 (HEK293 [2]) is reported as > 20 µM (inactive). For the same compound, the EC50 (HEK293 [3]) was 3.97 µM (active), the IC50 (cells) was > 138 µM (inactive) and the EC50 [4] was 13.9 µM (active). For the same compound, the IC50 (HEK293 [5]) was 13.2 µM (inactive), the IC50 (Tumor necrosis factor) was 6.88 µM (active) and the IC50 (HEK293 [6]) was 13.6 µM (active). For the same compound, the IC50 [7] was 5.83 µM (active), the IC50 (HEK293 [8]) was 19 µM (active) and the IC50 (Genome polyprotein) was 58 µM (active).
In the case of `Cc1csc(NC(=O)CSc2nc(C(C)C)nc3ccccc23)n1`, the IC50 (Major prion protein) is reported as 2.05 µM (active), the IC50 [9] is reported as 7.94 µM (active) and the IC50 (cells) is reported as 69.1 µM (inactive).
With `CCC1CO/C(=C(\C(Cl)=C(Cl)Cl)[N+](=O)[O-])N1` (configuration not stated) the IC50 [10] was 27.9 µM (inactive) and the IC50 [11] was 14.9 µM (inactive).
For `O=C(c1ccc2ccccc2c1)N1CCN(c2ccc(C(F)(F)F)cn2)CC1`, the IC50 (Beta-galactosidase) was > 80 µM (inactive).
In the case of `COC(=O)Nc1ccc(OCc2ccccc2)cc1`, the EC50 [12] is reported as > 91.2 µM (inactive) and the EC50 [13] is reported as > 91.2 µM (inactive).
With `O=C(c1cc2ccccc2o1)N1CCN(c2ccccc2Cl)CC1` the IC50 (Beta-galactosidase) was > 80 µM (inactive).
In the case of `CC(C)(C)OC(=O)NCCCC[C@H](NC(=O)c1[nH]cnc1C(=O)NC(c1ccccc1)c1ccccc1)C(=O)OC(C)(C)C`, the EC50 [14] is reported as 3.48 µM (active), the EC50 [15] is reported as > 60 µM (not active) and the IC50 [10] is reported as > 69.5 µM (inactive). The IC50 [11] was 10.6 µM (inactive).
In the case of `O=C(c1cccs1)N1CCc2c([nH]c3ccccc23)C1c1ccc(Cl)cc1` (configuration not stated), the IC50 [10] is reported as > 69.5 µM (inactive), the IC50 [11] is reported as > 69.5 µM (inactive) and the IC50 [16] is reported as 32.4 µM (inactive). For the same compound, the IC50 [17] was > 69.5 µM (inactive) and the IC50 (Protein skinhead-1) was > 100 µM (inactive).
For `CCC1NC(=O)c2cc3ccccc3cc2-n2c1nc1cc(C)cc(C)c1c2=O` (configuration not stated), the IC50 (Beta-galactosidase) was > 80 µM (inactive).
With `Nc1nc2ccc(Cl)cc2cc1C(=O)NCc1ccccc1Br` the IC50 (Major prion protein) was 7.35 µM (active) and the IC50 (cells) was 46.3 µM (inactive).
For `Cc1ccc(-c2cc(C(=O)NN=Cc3cccc(OCc4ccccc4)c3)[nH]n2)cc1C`, the IC50 [16] was > 69.5 µM (inactive) and the IC50 [17] was > 69.5 µM (inactive).
With `O=C(CSc1nc2ccccc2s1)N/N=C/c1ccco1` the EC50 [12] was > 91.2 µM (inactive) and the EC50 [13] was > 91.2 µM (inactive).
